pEC50, pIC50: −log10 of the molar value. Read-outs that look alike come from different tables or passages of the source.
What was measured:
HIV-1 = assay: NCI in vitro anti-HIV drug screen: XTT-formazan assay, protection of T4 lymphocytes (CEM) from HIV-1 cytopathic effects; format: cell-based, human immunodeficiency virus (HIV-1); details: for pEC50: 144 h, HIV-1 infected CEM cells, 6 days, XTT, approximate values, read-out: EC50 (50% effective concentration against HIV cytopathic effects); for inhibition at 20 µM / activity at 20 µM: dose 2.00 × 10^-5 Molar; for inhibition at 2 µM / activity at 2 µM: dose 2.00 × 10^-6 Molar; for inhibition at 0.2 µM / activity at 0.2 µM: dose 2.00 × 10^-7 Molar; for TI50 (IC/EC), Therapeutic Index: IC50/EC50; for inhibition at 200 µM / activity at 200 µM: dose 2.00 × 10^-4 Molar; for inhibition at 63.2 µM / activity at 63.2 µM: dose 6.32 × 10^-5 Molar; for inhibition at 6.33 µM / activity at 6.33 µM: dose 6.33 × 10^-6 Molar; for inhibition at 0.0635 µM / activity at 0.0635 µM: dose 6.35 × 10^-8 Molar
Summary of the method: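 CEM T4 lymphocytes with serial half-log10 compound dilutions were infected with HIV-1 and incubated 6 days at 37° in 5% CO2. Cell protection from cytolysis was quantified by XTT formazan absorbance, with microscopic confirmation, against uninfected drug-treated toxicity controls.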

[1] = system: T4 lymphocytes (CEM cell line); assay: Cell growth / toxicity control in uninfected T4 lymphocytes (CEM), XTT-formazan; format: cell-based; details: Homo sapiens, CCRF-CEM; for pIC50: 144 h, uninfected CEM cells, 6 days, XTT, approximate values, read-out: IC50 (50% inhibitory concentration for cell growth); for activity at 20 µM: dose 2.00 × 10^-5 Molar; for activity at 2 µM: dose 2.00 × 10^-6 Molar; for activity at 0.2 µM: dose 2.00 × 10^-7 Molar; for activity at 200 µM: dose 2.00 × 10^-4 Molar; for activity at 63.2 µM: dose 6.32 × 10^-5 Molar; for activity at 6.33 µM: dose 6.33 × 10^-6 Molar; for activity at 0.634 µM: dose 6.34 × 10^-7 Molar; for activity at 0.0635 µM: dose 6.35 × 10^-8 Molar
Summary of the method: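 Uninfected CEM T4 lymphocytes received compound in half-log10 dilutions (1:200 final dilution of DMSO solution) as toxicity control alongside HIV-1-infected cultures. After 6 days at 37° in 5% CO2, viability was quantified by XTT formazan absorbance plus microscopy.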

[2] = Human immunodeficiency virus 1, CCRF-CEM
[3] = Human immunodeficiency virus 1, CCRF-CEM, read-out: Percent of Protection
[4] = Human immunodeficiency virus 1, Lymphocyte, read-out: Percent of Control, Infected
[5] = read-out: Percent of Control, Uninfected
[6] = Human immunodeficiency virus 1, Lymphocyte, dose 6.34 × 10^-7 Molar, read-out: Percent of Control, Infected
[7] = Human immunodeficiency virus 1, CCRF-CEM, dose 6.34 × 10^-7 Molar, read-out: Percent of Protection

| SMILES | pEC50 (HIV-1; [2]) | inhibition at 20 µM (HIV-1; [3]) [%] | inhibition at 2 µM (HIV-1; [3]) [%] | inhibition at 0.2 µM (HIV-1; [3]) [%] | activity at 20 µM (HIV-1; [4]) [%] | activity at 2 µM (HIV-1; [4]) [%] | activity at 0.2 µM (HIV-1; [4]) [%] | TI50 (IC/EC), Therapeutic Index (HIV-1) | pIC50 [1] | activity at 20 µM [1, 5] [%] | activity at 2 µM [1, 5] [%] | activity at 0.2 µM [1, 5] [%] | inhibition at 200 µM (HIV-1; [3]) [%] | inhibition at 63.2 µM (HIV-1; [3]) [%] | inhibition at 6.33 µM (HIV-1; [3]) [%] | inhibition at 0.0635 µM (HIV-1; [3]) [%] | activity at 200 µM (HIV-1; [4]) [%] | activity at 63.2 µM (HIV-1; [4]) [%] | activity at 6.33 µM (HIV-1; [4]) [%] | activity at 0.634 µM (HIV-1; [6]) [%] | further results |
| --- | --- | --- | --- | --- | --- | --- | --- | --- | --- | --- | --- | --- | --- | --- | --- | --- | --- | --- | --- | --- | --- |
| CNc1c(Cl)cccc1S(=O)(=O)c1ccccc1[N+](=O)[O-] [Compound 78, 2-(2-nitrophenylsulfonyl)-6-chloro-N-methylaniline] | 6.66 | 89.5 | 93.9 | 45.9 | 89.8 | 94.1 | 47 | > 9.08 × 10^+1 | < 4.70 | 85.5 | 85.6 | 85.2 | – | – | – | – | – | – | – | – | inhibition at 0.02 µM (HIV-1; Human immunodeficiency virus 1, CCRF-CEM, dose 2.00 × 10^-8 Molar, read-out: Percent of Protection): 8.88%; inhibition at 6.32 µM (HIV-1; Human immunodeficiency virus 1, CCRF-CEM, dose 6.32 × 10^-6 Molar, read-out: Percent of Protection): 96%; inhibition at 0.633 µM (HIV-1; Human immunodeficiency virus 1, CCRF-CEM, dose 6.33 × 10^-7 Molar, read-out: Percent of Protection): 100%; inhibition at 0.0634 µM (HIV-1; Human immunodeficiency virus 1, CCRF-CEM, dose 6.34 × 10^-8 Molar, read-out: Percent of Protection): 12.2%; inhibition at 0.00635 µM (HIV-1; Human immunodeficiency virus 1, CCRF-CEM, dose 6.35 × 10^-9 Molar, read-out: Percent of Protection): 2.69%; activity at 0.02 µM (HIV-1; Human immunodeficiency virus 1, Lymphocyte, dose 2.00 × 10^-8 Molar, read-out: Percent of Control, Infected): 10.7%; activity at 6.32 µM (HIV-1; Human immunodeficiency virus 1, Lymphocyte, dose 6.32 × 10^-6 Molar, read-out: Percent of Control, Infected): 96%; activity at 0.633 µM (HIV-1; Human immunodeficiency virus 1, Lymphocyte, dose 6.33 × 10^-7 Molar, read-out: Percent of Control, Infected): 100%; activity at 0.0634 µM (HIV-1; Human immunodeficiency virus 1, Lymphocyte, dose 6.34 × 10^-8 Molar, read-out: Percent of Control, Infected): 13.9%; activity at 0.00635 µM (HIV-1; Human immunodeficiency virus 1, Lymphocyte, dose 6.35 × 10^-9 Molar, read-out: Percent of Control, Infected): 4.64%; activity at 0.02 µM ([1]; dose 2.00 × 10^-8 Molar, read-out: Percent of Control, Uninfected): 92.2%; activity at 6.32 µM ([1]; dose 6.32 × 10^-6 Molar, read-out: Percent of Control, Uninfected): 91.5%; activity at 0.633 µM ([1]; dose 6.33 × 10^-7 Molar, read-out: Percent of Control, Uninfected): 86.4%; activity at 0.0634 µM ([1]; dose 6.34 × 10^-8 Molar, read-out: Percent of Control, Uninfected): 87.4%; activity at 0.00635 µM ([1]; dose 6.35 × 10^-9 Molar, read-out: Percent of Control, Uninfected): 88.5% |
| CNc1ccc(S(=O)(=O)c2ccccc2[N+](=O)[O-])cc1C [Compound 79, 4-(2-nitrophenyisulfonyl)-N,2-dimethylaniline] | 6.74 | 78.6 | 97 | 53.9 | 79.7 | 97.2 | 56.2 | 1.79 × 10^-2 | 4.49 | 76.9 | 94 | 97.1 | 10.7 | 10.1 | 103 | 7.87 | 15.2 | 14.6 | 103 | 66.8 | inhibition at 0.634 µM (HIV-1; Human immunodeficiency virus 1, CCRF-CEM, read-out: Percent of Protection, dose 6.34 × 10^-7 Molar): 65%; activity at 0.0635 µM (HIV-1; [4]): 12.5%; activity at 200 µM [1, 5]: 11.9%; activity at 63.2 µM [1, 5]: 13.9%; activity at 6.33 µM [1, 5]: 98.2%; activity at 0.634 µM [1, 5]: 93%; activity at 0.0635 µM [1, 5]: 107% |
| CCNc1ccccc1S(=O)(=O)c1ccccc1[N+](=O)[O-] [Compound 81, 2-(2-NITROPHENYLSULFONYL)-N-ETHYLANILINE] | 5.63 | 53.6 | 46.1 | 1.5 | 68.5 | 63.3 | 33 | 1.39 × 10^+1 | 4.49 | 68.6 | 89 | 70.7 | 17.2 | -15 | 81.4 | 5.99 | 43.7 | 21.8 | 87.3 | 53.3 | inhibition at 0.634 µM (HIV-1; [7]): 31.3%; activity at 0.0635 µM (HIV-1; [4]): 36.1%; activity at 200 µM [1, 5]: 13.7%; activity at 63.2 µM [1, 5]: 23.6%; activity at 6.33 µM [1, 5]: 83.1%; activity at 0.634 µM [1, 5]: 89.4%; activity at 0.0635 µM [1, 5]: 93.7% |
| CNc1ccccc1S(=O)(=O)c1ccccc1Cl [Compound 82, 2-(2-CHLOROPHENYSULFONYL)-N-METHYLANILINE] | 4.53 | 41.4 | -5.07 | -22.6 | 60.1 | 28.6 | 16.6 | 4.93 × 10^0 | 3.84 | 78.2 | 91.2 | 60.8 | 3.76 | 68.1 | 24.5 | 23.7 | 34.6 | 78.3 | 48.6 | 26 | inhibition at 0.634 µM (HIV-1; [7]): -8.87%; activity at 0.0635 µM (HIV-1; [4]): 48.1%; activity at 200 µM [1, 5]: 33.9%; activity at 63.2 µM [1, 5]: 93.3%; activity at 6.33 µM [1, 5]: 84.2%; activity at 0.634 µM [1, 5]: 96.1%; activity at 0.0635 µM [1, 5]: 93.2% |

— patent publication US6303630A, “Diarylsulfone non-nucleoside reverse transcriptase inhibitors of human immunodeficiency virus” (University of the Sciences in Philadelphia, priority 2000, dated 2001)
